From patent US9751865B2, “Dihydro-hydantoin derivatives with herbicidal activity” (SYNGENTA PARTICIPATIONS AG, priority 2013, dated 2017) come the findings set out here.

Holding throughout (assay type): in vivo
Experiment [1] has as its system Setaria faberi. Kind of experiment: Post-emergence herbicidal activity, SETFA. Details: key: 5=total damage to plant; 0=no damage to plant. Particulars: application post-emergence, 1000 g/Ha, evaluated after 13 days, scale 0-5. As for the experimental part: (§1) Seeds of a variety of test species were sown in standard soil in pots. After 8 days cultivation (post-emergence) under controlled conditions in a glasshouse (at 24/16° C., day/night; 14 hours light; 65% humidity), the plants were sprayed with an aqueous spray solution derived from the formulation of the technical active ingredient in acetone/water (50:50) solution containing 0.5% Tween 20 (polyoxyethelyene sorbitan monolaurate, CAS RN 9005-64-5). The test plants were then grown in a glasshouse under controlled conditions (at 24/16° C., day/night; 14 hours light; 65% humidity) and watered twice daily. After 13 days, the test was evaluated (5=total damage to plant; 0=no damage to plant).

Experiment [2] deals with Amaranthus retroflexus. Briefly: Post-emergence herbicidal activity, AMARE. Details: key: 5=total damage to plant; 0=no damage to plant. Particulars: application post-emergence, 1000 g/Ha, evaluated after 13 days, scale 0-5. The method, then: as §1
The subject of experiment [3] is Setaria faberi. Briefly: Pre-emergence herbicidal activity, SETFA. Particulars: application pre-emergence, 1000 g/Ha, evaluated after 13 days, scale 0-5. The method, then:
as §1, with “After” for “After 8 days”, “for one day (pre-emergence)” for “(post-emergence)”

For experiment [4], the system named is Abutilon theophrasti. Briefly: Post-emergence herbicidal activity, ABUTH. Details: key: 5=total damage to plant; 0=no damage to plant. Particulars: application post-emergence, 1000 g/Ha, evaluated after 13 days, scale 0-5. As for the experimental part:
as §1

Experiment [5] relates to Abutilon theophrasti. Briefly: Pre-emergence herbicidal activity, ABUTH. Details: key: 5=total damage to plant; 0=no damage to plant. Particulars: application pre-emergence, 1000 g/Ha, evaluated after 13 days, scale 0-5. As for the experimental part: as §1, with “After” for “After 8 days”, “for one day (pre-emergence)” for “(post-emergence)”
Experiment [6] deals with Alopecurus myosuroides. Kind of experiment: Pre-emergence herbicidal activity, ALOMY. Particulars: application pre-emergence, 1000 g/Ha, evaluated after 13 days, scale 0-5. The method, then: as §1, with “After” for “After 8 days”, “for one day (pre-emergence)” for “(post-emergence)”
Experiment [7] concerns Echinochloa crus-galli. Briefly: Post-emergence herbicidal activity, ECHCG. Details: key: 5=total damage to plant; 0=no damage to plant. As to conditions: application post-emergence, 1000 g/Ha, evaluated after 13 days, scale 0-5. The method, then:
as §1

The test system of experiment [8] is Amaranthus retroflexus. Briefly: Pre-emergence herbicidal activity, AMARE. Details: key: 5=total damage to plant; 0=no damage to plant. As to conditions: application pre-emergence, 1000 g/Ha, evaluated after 13 days, scale 0-5. As for the experimental part:
as §1, with “After” for “After 8 days”, “for one day (pre-emergence)” for “(post-emergence)”

Experiment [9] has as its system Zea mays. Briefly: Post-emergence herbicidal activity, ZEAMX. Particulars: application post-emergence, 1000 g/Ha, evaluated after 13 days, scale 0-5. Details: key: 5=total damage to plant; 0=no damage to plant. As for the experimental part:
as §1

The subject of experiment [10] is Echinochloa crus-galli. Kind of experiment: Pre-emergence herbicidal activity, ECHCG. Details: key: 5=total damage to plant; 0=no damage to plant. As to conditions: application pre-emergence, 1000 g/Ha, evaluated after 13 days, scale 0-5. The method, then:
as §1, with “After” for “After 8 days”, “for one day (pre-emergence)” for “(post-emergence)”

Experiment [11] deals with Zea mays. Briefly: Pre-emergence herbicidal activity, ZEAMX. As to conditions: application pre-emergence, 1000 g/Ha, evaluated after 13 days, scale 0-5. The method, then: as §1, with “After” for “After 8 days”, “for one day (pre-emergence)” for “(post-emergence)”
For experiment [12], the system named is Alopecurus myosuroides. Kind of experiment: Post-emergence herbicidal activity, ALOMY. Details: key: 5=total damage to plant; 0=no damage to plant. As to conditions: application post-emergence, 1000 g/Ha, evaluated after 13 days, scale 0-5. As for the experimental part: as §1

`CCOC1C(O)N(c2cc(C(F)(F)F)n(C)n2)C(=O)N1C` (stereo not drawn) [Compound A8, 5-ethoxy-4-hydroxy-1-methyl-3-[1-methyl-5-(trifluoromethyl)pyrazol-3-yl]imidazolidin-2-one]: the SETFA damage score with Setaria faberi [1] is reported as 5; with Setaria faberi [3], 4. Besides, the AMARE damage score in the experiment with Amaranthus retroflexus [2] and in the experiment with Amaranthus retroflexus [8] was 5 each time. Moreover, the ABUTH damage score in the experiment with Abutilon theophrasti [4] and in the experiment on Abutilon theophrasti [5] was 5 in each case. Also, the ALOMY damage score in the experiment with Alopecurus myosuroides [6] stood at 4; in the experiment with Alopecurus myosuroides [12], 5. In addition, the ECHCG damage score in the experiment with Echinochloa crus-galli [7] and in the experiment with Echinochloa crus-galli [10] was 5 throughout. Also, the ZEAMX damage score is recorded as 4 with Zea mays [9] and 2 in the experiment on Zea mays [11].

In the case of `CCOC1C(O)N(c2cc(C(C)(C)C)n(C)n2)C(=O)N1C` (stereo not drawn) [Compound A10], the SETFA damage score came to 5 with Setaria faberi [1] and 4 with Setaria faberi [3]. The AMARE damage score with Amaranthus retroflexus [2] and in the experiment with Amaranthus retroflexus [8] was 5 each time. Besides, the ABUTH damage score in the experiment on Abutilon theophrasti [4] and in the experiment with Abutilon theophrasti [5] was 5 each time. The ALOMY damage score with Alopecurus myosuroides [6] came out at 4; in the experiment on Alopecurus myosuroides [12] it was 5. Besides, the ECHCG damage score in the experiment with Echinochloa crus-galli [7] and with Echinochloa crus-galli [10] was 5 each time. In addition, the ZEAMX damage score was determined as 5 in the experiment with Zea mays [9] and 2 in the experiment on Zea mays [11].

Take `CN1C(=O)N(c2cc(C(F)(F)F)n(C)n2)C(O)C1O` (stereo not drawn) [Compound A12, 4,5-dihydroxy-1-methyl-3-[1-methyl-5-(trifluoromethyl)pyrazol-3-yl]imidazolidin-2-one]: the SETFA damage score is reported as 5 in the experiment with Setaria faberi [1] and 4 in the experiment on Setaria faberi [3]. Besides, the AMARE damage score in the experiment on Amaranthus retroflexus [2] and in the experiment with Amaranthus retroflexus [8] was 5 in each case. The ABUTH damage score in the experiment with Abutilon theophrasti [4] and in the experiment on Abutilon theophrasti [5] was 5 each time. Moreover, the figures for the ALOMY damage score with Alopecurus myosuroides [6] and with Alopecurus myosuroides [12] were 4 and 5, respectively. For the same compound, the ECHCG damage score with Echinochloa crus-galli [7] is 5; with Echinochloa crus-galli [10], 4. Moreover, the values for the ZEAMX damage score in the experiment with Zea mays [9] and with Zea mays [11] were 4 and 1, respectively.

Regarding `CN1CC(O)N(c2cc(C(F)(F)F)n(C)n2)C1=O` (stereo not drawn) [Compound A13], the values for the SETFA damage score with Setaria faberi [1] and in the experiment on Setaria faberi [3] were 5 and 4, respectively. The AMARE damage score in the experiment on Amaranthus retroflexus [2] and in the experiment with Amaranthus retroflexus [8] was 5 each time. Also, the ABUTH damage score in the experiment on Abutilon theophrasti [4] and with Abutilon theophrasti [5] was 5 each time. The ALOMY damage score in the experiment on Alopecurus myosuroides [6] was 4; with Alopecurus myosuroides [12] it was 5. The ECHCG damage score with Echinochloa crus-galli [7] and in the experiment with Echinochloa crus-galli [10] was 5 throughout. Further, the ZEAMX damage score with Zea mays [9] is 4; in the experiment on Zea mays [11], 2.

For the compound `CN1CC(O)N(c2cc3n(n2)CCC3(C)C)C1=O` (stereo not drawn) [Compound A14], the results for the SETFA damage score with Setaria faberi [1] and in the experiment with Setaria faberi [3] were 5 and 4, respectively. The AMARE damage score with Amaranthus retroflexus [2] and in the experiment on Amaranthus retroflexus [8] was 5 throughout. The ABUTH damage score in the experiment on Abutilon theophrasti [4] and in the experiment on Abutilon theophrasti [5] was 5 in each case. Moreover, the ALOMY damage score in the experiment on Alopecurus myosuroides [6] was 4; with Alopecurus myosuroides [12], 5. For the same compound, the ECHCG damage score in the experiment with Echinochloa crus-galli [7] is 5; in the experiment on Echinochloa crus-galli [10] it was 4. Moreover, the figures for the ZEAMX damage score in the experiment with Zea mays [9] and in the experiment on Zea mays [11] were 5 and 3, respectively.

In the case of `C[C@@H]1C(O)N(c2cc(C(F)(F)F)n(C)n2)C(=O)N1C` (stereo partly drawn) [Compound A15, (5R)-4-hydroxy-1,5-dimethyl-3-[1-methyl-5-(trifluoromethyl)pyrazol-3-yl]imidazolidin-2-one], the SETFA damage score was 5 with Setaria faberi [1] and 3 in the experiment on Setaria faberi [3]. The AMARE damage score with Amaranthus retroflexus [2] and in the experiment on Amaranthus retroflexus [8] was 5 in each case. The ABUTH damage score in the experiment on Abutilon theophrasti [4] and with Abutilon theophrasti [5] was 5 each time. For the same compound, the figures for the ALOMY damage score in the experiment on Alopecurus myosuroides [6] and in the experiment on Alopecurus myosuroides [12] were 2 and 5, respectively. For the same compound, the values for the ECHCG damage score with Echinochloa crus-galli [7] and in the experiment on Echinochloa crus-galli [10] were 5 and 2, respectively. Besides, the ZEAMX damage score in the experiment on Zea mays [9] was determined as 5; with Zea mays [11] it was 1.

As to `CC1NC(=O)N(c2cc(C(C)(C)C)n(C)n2)C1O` (stereo not drawn) [Compound A17], the SETFA damage score is given as 2 in the experiment with Setaria faberi [1] and 3 in the experiment on Setaria faberi [3]. For the same compound, the AMARE damage score in the experiment with Amaranthus retroflexus [2] is given as 4; in the experiment with Amaranthus retroflexus [8] it was 5. In addition, the ABUTH damage score with Abutilon theophrasti [4] and in the experiment with Abutilon theophrasti [5] was 4 in each case. Also, the ALOMY damage score in the experiment with Alopecurus myosuroides [6] and with Alopecurus myosuroides [12] was 3 each time. For the same compound, the ECHCG damage score with Echinochloa crus-galli [7] turned out to be 3; in the experiment on Echinochloa crus-galli [10], 4. Besides, the values for the ZEAMX damage score in the experiment on Zea mays [9] and with Zea mays [11] were 0 and 1, respectively.
